The source of these data is patent publication US6653478B2, “Substituted benzimidazol-2-ones as vasopressin receptor antagonists and neuropeptide Y modulators” (Ortho-McNeil Pharmaceutical, Inc., priority 2000, dated 2003).

Parameters in all cases: expressed in transfected cells; host or cells: HEK-293 (membranes)
The target in one experiment is human V2 receptor (Homo sapiens, UniProt P30518). Description: V2 binding assay (3H-AVP displacement, HEK-293 membranes). Particulars: 1.0 μM compound; read-out: V2@1.0, % Inh. On the procedure: (§1) V1a, V1b or V2 Binding Assay
(§2) Receptor binding studies were performed using recombinant human V1a, V1b or V2 receptors. Cellular membranes were harvested from HEK-293 cells transfected to express either the V1a, V1b or V2 receptors. Compounds were evaluated for their ability to displace ^3H-arginine vasopressin (^3H-AVP; specific activity 40-87 Ci/mmol; NEN Life Sciences, Boston, Mass.). Compounds were solubilized in dimethylsulfoxide (DMSO) and diluted to working concentration of 10% DMSO with assay buffer (50 mM Tris, 5 mM MgCl2, 0.1% BSA, pH 7.5). Assay buffer was supplemented with several protease inhibitors (1 mM Pefabloc, 5 μg/ml aprotinin/leupeptin/pepstatin A, 50 μg/ml bacitracin; Sigma Chemical, St. Louis, Mo.). Non-specific binding was determined using 1.25 μM arginine vasopressin (AVP; Peninsula Labs, Belmont, Calif.). Assay reagents and test compounds were added to 96-well round bottom polypropylene plates (145 μl buffer, 5 μl compound in 10% DMSO, 25 μl buffer containing 10,000 cpm tracer, 25 μl cell membrane). After incubation for 1 hour at room temperature, the well contents were aspirated across a Unifilter GF/C plate (Packard Instrument, Downers Grove, Ill.) which had been presoaked in 0.3% polyethyleneimine to prevent peptide sticking. The wells were washed repeatedly with cold saline containing 0.05% Tween 20. The plate was then dried and 25 μl Microscint-20 cocktail (Packard Instruments) added to each well. The plates were sealed and counted on a TopCount scintillation counter (Packard Instruments) using quench correction.

The next experiment has as its target human V1a receptor (Homo sapiens, UniProt P37288). Description: V1a binding assay (3H-AVP displacement, HEK-293 membranes). Particulars: for inhibition at 1 µM: 1.0 μM compound, read-out: V1a@1.0, % Inh. On the procedure: as §1, §2
The target in the next experiment is T1, human V1b receptor (Homo sapiens, UniProt P47901).
T1 sequence (P47901 1-424): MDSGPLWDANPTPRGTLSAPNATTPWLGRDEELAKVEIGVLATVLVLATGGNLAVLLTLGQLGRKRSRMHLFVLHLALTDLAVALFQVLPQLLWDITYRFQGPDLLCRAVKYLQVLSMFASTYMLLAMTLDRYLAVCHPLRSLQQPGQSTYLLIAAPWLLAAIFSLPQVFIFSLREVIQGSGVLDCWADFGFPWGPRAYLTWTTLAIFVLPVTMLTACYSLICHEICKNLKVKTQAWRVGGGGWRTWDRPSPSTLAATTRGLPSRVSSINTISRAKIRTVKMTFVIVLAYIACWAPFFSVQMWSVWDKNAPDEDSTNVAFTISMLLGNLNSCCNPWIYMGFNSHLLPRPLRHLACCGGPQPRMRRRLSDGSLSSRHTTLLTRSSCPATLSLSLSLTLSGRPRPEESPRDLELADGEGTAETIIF
The experiment can be described thus: V1b binding assay (3H-AVP displacement, HEK-293 membranes). Particulars: for inhibition at 1 µM: 1.0 μM compound, read-out: V1b@1.0, % Inh. On the procedure: as §1, §2

Chain of human V1a receptor (P37288 whole entry): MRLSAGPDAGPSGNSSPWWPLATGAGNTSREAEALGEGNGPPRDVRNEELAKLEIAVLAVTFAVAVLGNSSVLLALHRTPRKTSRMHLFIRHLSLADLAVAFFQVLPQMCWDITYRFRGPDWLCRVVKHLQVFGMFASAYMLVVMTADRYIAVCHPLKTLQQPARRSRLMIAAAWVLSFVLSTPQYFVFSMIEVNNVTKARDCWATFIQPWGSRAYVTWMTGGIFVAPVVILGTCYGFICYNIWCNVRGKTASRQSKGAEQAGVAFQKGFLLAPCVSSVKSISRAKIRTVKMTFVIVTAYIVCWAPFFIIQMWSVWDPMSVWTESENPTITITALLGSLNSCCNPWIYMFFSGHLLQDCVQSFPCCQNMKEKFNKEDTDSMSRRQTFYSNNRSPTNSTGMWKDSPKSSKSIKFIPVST
Chain of human V2 receptor (P30518 whole entry): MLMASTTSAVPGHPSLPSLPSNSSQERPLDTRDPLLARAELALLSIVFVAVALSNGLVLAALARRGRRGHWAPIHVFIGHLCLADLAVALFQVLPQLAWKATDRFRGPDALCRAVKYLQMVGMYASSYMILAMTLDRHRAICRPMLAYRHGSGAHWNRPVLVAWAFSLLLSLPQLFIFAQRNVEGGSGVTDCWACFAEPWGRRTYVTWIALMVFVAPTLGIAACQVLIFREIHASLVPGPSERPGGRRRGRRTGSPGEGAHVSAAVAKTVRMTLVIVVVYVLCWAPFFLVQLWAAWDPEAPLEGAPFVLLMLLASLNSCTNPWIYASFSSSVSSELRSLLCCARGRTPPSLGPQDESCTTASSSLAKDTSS

Turning to `O=C1OCCC1NC(=S)N1CCC(n2c(=O)n(CCCN3CCCCC3)c3ccccc32)CC1` (stereo not drawn) [Compound 157], the inhibition at 1 µM was determined as 6% on human V2 receptor, 5% on human V1a receptor and 0% on human V1b receptor.
As usually defined, the IC50 is the point on the concentration scale where inhibition reaches its midpoint. The low end stands for higher potency, the high end for lower potency. Consider `COc1cccc(CNC(=S)N2CCC(n3c(=O)n(CCCN4CCCC4)c4ccccc43)CC2)c1OC` [Compound 123, 1-[(N1-Piperidinocarbothioyl-(2,3-dimethoxybenzyl)amino)-4-yl]-3-(3-pyrrolidinylpropyl)-1,3-dihydrobenzimidazol-2-one], for which the inhibition at 1 µM at human V2 receptor is 2%; on human V1b receptor, 31%. At human V1a receptor, the IC50 came to 430 nM.
For `O=c1n(CCCN2CCCCC2)c2ccccc2n1C1CCN(C(=S)NCc2ccc3c(c2)OCO3)CC1` [Compound 163], in that order: 0%, 27% and 150 nM.
In the case of `CCCC1CCN(CCCn2c(=O)n(C3CCN(C(=S)NC(c4ccccc4)c4ccccc4)CC3)c3ccccc32)CC1` [Compound 122, 1-[(N1-piperidinocarbothioylbiphenylmethylamino)-4-yl]-3-(4-propylpiperidin-1-yl-propyl)-1,3-dihydrobenzimidazol-2-one], the figures for the inhibition at 1 µM on human V2 receptor and on human V1b receptor were 0% and 70%, respectively. The figures for the IC50 on human V1a receptor and on human V1b receptor were 52 nM and 250 nM, respectively.
`CC(CN1CCCC1)Cn1c(=O)n(C2CCN(C(=O)NC(c3ccccc3)c3ccccc3)CC2)c2ccccc21` (stereo not drawn) [Compound 149]: the inhibition at 1 µM at human V2 receptor came to 0%; on human V1b receptor, 44%. Further, the IC50 on human V1a receptor was found to be 42 nM.
In the case of `O=c1n(CCCN2CCCCC2)c2ccccc2n1C1CCN(C(=S)NC2c3ccccc3-c3ccccc32)CC1` [Compound 131, 1-[(N1-piperidinocarbothioylfluorenylamino)-4-yl]-3-(3-N-piperidinylpropyl)-1,3-dihydrobenzimidazol-2-one], the results for the inhibition at 1 µM at human V2 receptor and at human V1b receptor were 0% and 62%, respectively. This compound also gave an IC50 on human V1a receptor of 48 nM.
Take `O=c1n(Cc2ccc(-c3csnn3)cc2)c2ccccc2n1C1CCN(C(=S)NC(c2ccccc2)c2ccccc2)CC1` [Compound 167]: the inhibition at 1 µM was 8% on human V2 receptor, 12% at human V1a receptor and 1% at human V1b receptor.
With `O=C(NC1c2ccccc2-c2ccccc21)N1CCC(n2c(=O)n(CCCN3CCCCC3)c3ccccc32)CC1` [Compound 152], the inhibition at 1 µM was 2% on human V2 receptor and 38% at human V1b receptor. The same compound displayed an IC50 on human V1a receptor of 230 nM.
For `O=c1n(CCCN2CCCCC2)c2ccccc2n1C1CCN(C(=S)NCc2cccs2)CC1` [Compound 160], in that order: 0%, 27% and 230 nM.
On to `O=c1n(CCCN2CCCCC2)c2ccccc2n1C1CCN(C(=S)Nc2ccccc2-c2ccccc2)CC1` [Compound 161], for which the inhibition at 1 µM came out at 2% at human V2 receptor and 40% at human V1b receptor. On human V1a receptor, this compound had an IC50 of 108 nM.
Regarding `CC(C)(C)NC(=S)N1CCC(n2c(=O)n(CCCN3CCCCC3)c3ccccc32)CC1` [Compound 130, 1-[(N1-piperidinocarbothioyl-butylamino)-4-yl]-3-(3-N-piperidinylpropyl)-1,3-dihydrobenzimidazol-2-one], the inhibition at 1 µM turned out to be 2% at human V2 receptor, 19% on human V1a receptor and 26% at human V1b receptor.
`CC(NC(=S)N1CCC(n2c(=O)n(CCCN3CCCCC3)c3ccccc32)CC1)c1ccc(F)cc1` (stereo not drawn) [Compound 137]: the results for the inhibition at 1 µM at human V2 receptor and on human V1b receptor were 0% and 41%, respectively. The compound also had a half-inhibitory concentration (IC50) on human V1a receptor of 91 nM.
For the compound `O=c1n(CCCN2CCCCC2)c2ccccc2n1C1CCN(C(=S)NCCCc2ccccc2)CC1` [Compound 133, 1-[(N1-piperidinocarbothioylphenpropylamino)-4-yl]-3-(3-N-piperidinylpropyl)-1,3-dihydrobenzimidazol-2-one], the results for the inhibition at 1 µM on human V2 receptor and on human V1b receptor were 4% and 42%, respectively. The IC50 at human V1a receptor worked out at 69 nM.
Consider `O=c1n(CCCN2CCCCC2)c2ccccc2n1C1CCN(C(=S)Nc2ccc3c(c2)CCC3)CC1` [Compound 155], for which the inhibition at 1 µM is 5% at human V2 receptor, 28% on human V1a receptor and 10% on human V1b receptor.
Take `CC1CCCCN1CCCn1c(=O)n(C2CCN(C(=S)NC(c3ccccc3)c3ccccc3)CC2)c2ccccc21` (stereo not drawn) [Compound 181]: the IC50 at human V1a receptor was 23 nM; at human V1b receptor, 150 nM.
Turning to `CCCNC(=S)N1CCC(n2c(=O)n(CCCN3CCCCC3)c3ccccc32)CC1` [Compound 128, 1-[(N1-piperidinocarbothioylpropylamino)-4-yl]-3-(3-N-piperidinylpropyl)-1,3-dihydrobenzimidazol-2-one], the results for the inhibition at 1 µM on human V2 receptor, on human V1a receptor and at human V1b receptor were 0%, 12% and 31%, respectively.
As for `O=C1CCCN1CCCn1c(=O)n(C2CCN(C(=S)NC(c3ccccc3)c3ccccc3)CC2)c2ccccc21` [Compound 175], the inhibition at 1 µM came out at 61% at human V1a receptor and 23% on human V1b receptor.
With `CC(C)c1ccccc1NC(=O)N1CCC(n2c(=O)n(CCCN3CCCCC3)c3ccccc32)CC1` [Compound 138], the inhibition at 1 µM at human V2 receptor came out at 0%; on human V1a receptor it was 58%; at human V1b receptor, 21%.
For `CN(C)c1ccc(CNC(=S)N2CCC(n3c(=O)n(CCCN4CCCCC4)c4ccccc43)CC2)cc1` [Compound 165], in that order: 3%, 40% and 20%.
Turning to `CCN(CCCn1c(=O)n(C2CCN(C(=S)NC(c3ccccc3)c3ccccc3)CC2)c2ccccc21)C1CCCCC1` [Compound 179], on human V1a receptor, the IC50 came out at 145 nM. Besides, on human V1b receptor, the inhibition at 1 µM came to 65%.
Regarding `CC(C)(NC(=S)N1CCC(n2c(=O)n(CCCN3CCCCC3)c3ccccc32)CC1)c1ccccc1` [Compound 173], the inhibition at 1 µM at human V2 receptor worked out at 0%; at human V1b receptor it was 43%. Further, on human V1a receptor, the 50% inhibitory concentration (IC50) was found to be 250 nM.
For `O=c1n(CCCN2CC=CCC2)c2ccccc2n1C1CCN(C(=S)NC(c2ccccc2)c2ccccc2)CC1` [Compound 143], the values for the inhibition at 1 µM on human V2 receptor and at human V1b receptor were 8% and 65%, respectively. The compound also gave an IC50 on human V1a receptor of 41 nM.
`CN1CCN=C1NCCCn1c(=O)n(C2CCN(C(=S)NC(c3ccccc3)c3ccccc3)CC2)c2ccccc21` [Compound 144]: the inhibition at 1 µM amounted to 2% on human V2 receptor and 31% at human V1b receptor. This compound returned an IC50 at human V1a receptor of 395 nM.
`CCC1CCN(CCCn2c(=O)n(C3CCN(C(=S)NC(c4ccccc4)c4ccccc4)CC3)c3ccccc32)C(C)C1` (stereo not drawn) [Compound 180] showed an IC50 on human V1a receptor of 67 nM. Moreover, the inhibition at 1 µM on human V1b receptor is 58%.
`CCCCN(CC)CCCn1c(=O)n(C2CCN(C(=S)NC(c3ccccc3)c3ccccc3)CC2)c2ccccc21` [Compound 178] yielded an IC50 on human V1a receptor of 90 nM. In addition, the inhibition at 1 µM at human V1b receptor worked out at 43%.
With `CC(C)N(CCCn1c(=O)n(C2CCN(C(=S)NC(c3ccccc3)c3ccccc3)CC2)c2ccccc21)C1CCCCC1` [Compound 177], the IC50 on human V1a receptor stood at 147 nM. Moreover, the inhibition at 1 µM at human V1b receptor turned out to be 31%.
On to `O=C1CCCCN1CCCn1c(=O)n(C2CCN(C(=S)NC(c3ccccc3)c3ccccc3)CC2)c2ccccc21` [Compound 176], for which the inhibition at 1 µM stood at 59% on human V1a receptor and 31% on human V1b receptor.
